Measured values as given in patent US5130327A, “Indole derivatives” (Consejo Superior de Investigaciones Cientificas, priority 1989, dated 1992).
pIC50: −log10 of the molar value.

Experiments:
Bovine Brain MAO A = target: T1, Bovine Brain MAO A (Bos taurus, UniProt P21398); assay: In vitro inhibition of MAO from bovine brain mitochondria, tyramine as substrate (form A); assay type: biochemical; conditions: pI50 = -log [I50], molar
T1 construct: in vitro activity of MAO from bovine brain mitochondria; from tissue; host or cells: bovine brain mitochondria
T1 sequence (P21398 1-527): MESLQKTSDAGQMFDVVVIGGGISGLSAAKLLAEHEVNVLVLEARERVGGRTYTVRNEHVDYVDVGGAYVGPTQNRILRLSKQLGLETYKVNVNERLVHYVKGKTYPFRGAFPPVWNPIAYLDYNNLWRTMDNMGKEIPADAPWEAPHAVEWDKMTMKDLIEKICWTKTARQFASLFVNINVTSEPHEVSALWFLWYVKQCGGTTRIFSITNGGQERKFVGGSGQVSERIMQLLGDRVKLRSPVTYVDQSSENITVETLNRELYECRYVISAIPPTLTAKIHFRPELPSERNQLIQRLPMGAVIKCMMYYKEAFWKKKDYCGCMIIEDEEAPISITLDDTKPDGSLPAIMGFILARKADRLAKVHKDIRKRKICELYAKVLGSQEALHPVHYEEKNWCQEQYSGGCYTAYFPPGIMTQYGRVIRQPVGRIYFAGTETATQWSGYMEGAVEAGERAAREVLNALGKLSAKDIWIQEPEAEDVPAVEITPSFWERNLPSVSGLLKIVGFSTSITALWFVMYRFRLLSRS
Source text: (§1) The following table illustrates the structure of particular compounds of the invention (1). It also gives specific pI50 values where pI50 =-log [I50 ] where [I50 ] is the molar concentration of test compound which inhibits 50% of the in vitro activity of MAO from bovine brain mitochondria using tyramine as substrate.

[1] = Behavioural Despair (Porsolt's test); assay type: in vivo; conditions: acute treatment; read-out: Porsolt's test MED, acute
Protocol: The pharmacological profile was carried out assessing the antidepressant activity with the following tests:
Behavioural Despair (Porsolt et al. Arch. Int. Pharmacodyn; 229:327-336, 1977),

[2] = Interaction with salbutamol-induced hypoactivity; assay type: in vivo
Source text: (§2) The action mechanism was studied in acute and chronic treatments on the interaction response with clonidine, salbutamol (Richard, J. Intern. J. Neuroscience, 9:17-19, 1979) and tetrabenazine (Pletscher, A.: An. N.Y. Aca. Sci. 80:1039-1045, 1959), and the response to the potentiation with L-dopa, L-tryptophan, tryptamine (Jalfre, M. et al., Arch. Int. Pharmacodyn, 159:194-221, 1982) and β-phenylethylamine (Ortmann, et al, Psychopharmacol. 84:22-27, 1984).

[3] = system: cerebral β-adrenergic receptors; assay: Effects of chronic treatment on β receptors; assay type: in vivo; conditions: chronic administration in the rat
Protocol: Effects of chronic treatment on α2 -, β- and 5-HT2 receptors. The test compounds, at a dose of 10 mg/kg/day i.p., were administered for 21 days to Wistar male rats (250±2.4 g). After treatment the animals were killed, brains were dissected and cortices were scraped from the dorsal surface of the […]. ^3 H UK 14304, ^3 H Dihydroalprenalol and ^3 H Ketanserin were used as ligands in the binding studies.

[4] = "Cheese effect" by tyramine potentiation; conditions: in vivo
Protocol: (§3) The secondary effects were studied mainly on the cardiovascular system, and the effects on the arterial pressure, heart rate and rhythm, P-R interval and isolated organ (rabbit aortic rings and isolated atria), were evaluated both after acute and chronic treatments. In the same way, the "cheese effect" was studied by means of the tyramine potentiation.

[5] = Potentiation of β-phenylethylamine; assay type: in vivo; conditions: in vivo
Source text: as §2

[6] = system: reuptake of noradrenaline; assay: Reuptake of noradrenaline in vitro, crude synaptosomal preparation; assay type: biochemical, rat
Protocol: Influence on the reuptake of monoamines "in vitro" was also studied. The effect of the compounds on the reuptake of 5-HT noradrenaline and dopamine was studied using Wistar male rats (350±2.5 g). They were kept under controlled light and temperature conditions and fed "ad libitum" until killed. The animals were killed by decapitation and brains were frozen and stored at -20° C. prior to analysis. Brains were dissected on an ice-filled petri dish. The cortices for 5-HT and noradrenaline assay and striatum (including caudate nucleus, putamen and globus pallidus) for dopamine assay were immediately weighed and homogenized. The standard incubation medium contained: 1.7 μM ^14 C-5-HT); 0.5μM ^3 H-noradrenaline or 1 μM ^3 H-dopamine with 0.1 ml of the crude synaptosomal preparation. All drugs used in the study were dissolved in the incubation medium in a concentration range 10^-4 to 10^-8 M and were preincubated with the crude synaptosomal preparation obtained from the treated brains, for 5 min. at 37° C. or 0° C. before the addition of the labelled substrate.

Bovine Brain MAO B = target: T2, Bovine Brain MAO B (Bos taurus, UniProt P56560); assay: In vitro inhibition of MAO from bovine brain mitochondria, tyramine as substrate (form B); assay type: biochemical; set-up: key to Bovine Brain MAO, mark printed in place of a B value (nonselective): ns = nonselective
T2 construct: in vitro activity of MAO from bovine brain mitochondria; from tissue; host or cells: bovine brain mitochondria
T2 sequence (P56560 1-520): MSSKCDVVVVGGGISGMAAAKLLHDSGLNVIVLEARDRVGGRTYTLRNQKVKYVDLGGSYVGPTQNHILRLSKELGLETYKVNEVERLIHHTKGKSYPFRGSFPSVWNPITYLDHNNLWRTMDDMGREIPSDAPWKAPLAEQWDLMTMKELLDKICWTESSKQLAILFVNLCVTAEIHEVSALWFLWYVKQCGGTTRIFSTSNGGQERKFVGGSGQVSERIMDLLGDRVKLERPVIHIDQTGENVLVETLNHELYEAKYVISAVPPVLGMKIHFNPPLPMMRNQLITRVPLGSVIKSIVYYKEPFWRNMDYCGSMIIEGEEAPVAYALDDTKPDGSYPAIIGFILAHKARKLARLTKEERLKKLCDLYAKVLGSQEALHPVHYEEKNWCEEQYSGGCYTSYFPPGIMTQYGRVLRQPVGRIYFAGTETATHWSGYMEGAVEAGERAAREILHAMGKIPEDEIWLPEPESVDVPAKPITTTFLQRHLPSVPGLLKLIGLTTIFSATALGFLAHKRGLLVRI
Source text: as §1

[7] = Secondary effects on the cardiovascular system; conditions: in vivo
Protocol: as §3

Potentiation of 5-HT = assay type: in vivo; conditions: in vivo
rat cerebral MAO A and B = assay: MAO inhibitory activity at the biochemical level (reversibility and selectivity)
Source text: To determine MAO inhibitory activity at the biochemical level the following tests are used:
1. "In vitro inhibition" of rat cerebral MAO A and B giving I50 values for the two forms of the enzyme. Male Wistar rats (200 g) were used. Brains were obtained by decapitation and were homogenized. As substrates of the enzymes ^14 C-5-hydroxytryptamine oxalate 54 mCi/mmol and ^14 C-β-phenylethylamine were used. The residual enzymatic activities were referred to the activities in absence of MAO inhibitor (100%).
2. "Ex vivo inhibition" of rat cerebral MAO A and B after single dosing.
This gives the degree of inhibition in vivo of both forms of the enzyme and variation of this inhibition with time after treatment with a single dose. The compounds were administered intraperitoneally to male Wistar rats (175 g.) at a dose of 5 mg/kg in 1 ml/kg (H2 O). Animals were sacrificed by decapitation 24 h. and 7 days after treatment and brains were removed and homogenized. Enzymatic activities determined in treated animals, were compared with the activities in control animals (100%).
3. "Ex vivo" inhibition of rat cerebral MAO A and B after repeated dosing.
Male Wistar rats (175 g) were used.
The compounds were administered once daily intraperitonally for 7 days at a dose of 0.5 and 1 mg/kg in 1 ml/kg […]. […]

[8] = Interaction with clonidine-induced hypoactivity; assay type: in vivo
Source text: as §2

rat uterus = conditions: Arch. Int. Pharmacodyn. 1961, 133, 138-158; cited from earlier work

Structure (SMILES) | pIC50 (Bovine Brain MAO A) | minimal effective dose [1] | Hypoactivity induced by salbutamol, acute ([2]; acute treatment) | Hypoactivity induced by salbutamol, chronic ([2]; chronic treatment (10.2 mg/kg)) | Number or affinity of cerebral β-adrenergic receptors [3] | "Cheese effect" [4] | Activity in test of potentiation of β-phenylethylamine [5] | Effect on the reuptake of noradrenaline [6] | Bovine Brain MAO, mark printed in place of a B value (nonselective) (Bovine Brain MAO B; one pI50 given, no separate A and B values) | Cardiovascular effects [7] | Activity in test of potentiation of 5-HT (Potentiation of 5-HT) | Type of MAO inhibition (reversibility, selectivity) (rat cerebral MAO A and B) | Clonidine-induced hypoactivity, acute ([8]; acute (10.2 mg/kg)) | Clonidine-induced hypoactivity, chronic ([8]; chronic treatment (10.2 mg/kg) during 5 days) | pIC50 (Bovine Brain MAO B; pI50 = -log [I50], molar, bovine brain mitochondria, tyramine as substrate) | Antagonistic activity on the rat uterus (rat uterus)
COc1ccc2[nH]c(CN)cc2c1 [(s), 2-(5-methoxy-indolyl)methylamine] | 4.30 | 25 mg/kg | does not do so | counteracts | does not modify | no "cheese effect" | inactive | does not affect | ns | does not produce any significant cardiovascular effects | inactive | reversible and mixed inhibitor of MAO | no action | no action |  | 
CNCc1cc2cc(OC)ccc2[nH]1 [(t), N-methyl-2-(5-methoxy-indolyl)methylamine] | ≤ 4.00 |  |  |  |  |  |  |  |  |  |  |  |  |  | < 4.00 | a weak unspecific antagonistic activity
